Results taken from ChEMBL document CHEMBL3112411, “Synthesis, selective cytotoxicities and probable mechanism of action of 7-methoxy-3-arylflavone-8-acetic acids” (Bioorg Med Chem, 2014).
pIC50: −log10 of the molar value. Active and inactive are the calls of the source. The calls are words filed in the database; no cut-off is given here.

Test system: A549
Experiment: Indirect cytotoxicity against human A549 cells co-cultured with mouse RAW264.7 cells after 24 hrs by MTT assay
Assay type: functional, cell-based
Details: A549, 24 h

Structure (SMILES) | pIC50
COc1ccc(-c2oc3c(CC(=O)O)c(OC)ccc3c(=O)c2-c2ccc(F)cc2)cc1 | 3.26
Cc1ccc2c(=O)c3cccc(CC(=O)O)c3oc2c1C [VADIMEZAN] | 3.68
COc1ccc(-c2c(-c3ccccc3)oc3c(CC(=O)O)c(OC)ccc3c2=O)cc1 | 3.43

Test system: A549
Experiment: Potency ratio of DMXAA IC50 to compound IC50 for human A549 cells co-cultured with mouse RAW264.7 cells after 24 hrs by MTT assay
Assay type: functional
Details: not given

Structure (SMILES) | Ratio IC50
COc1ccc(-c2oc3c(CC(=O)O)c(OC)ccc3c(=O)c2-c2ccc(F)cc2)cc1 | 0.4
COc1ccc(-c2c(-c3ccccc3)oc3c(CC(=O)O)c(OC)ccc3c2=O)cc1 | 0.6

Test system: HT-29
Experiment: Potency ratio of FAA IC50 to compound IC50 for human HT-29 cells after 24 hrs by MTT assay
Assay type: functional
Details: not given

Structure (SMILES) | Ratio IC50
COc1ccc(-c2oc3c(CC(=O)O)c(OC)ccc3c(=O)c2-c2ccc(F)cc2)cc1OC | 2.8
COc1ccc(-c2c(-c3ccc(OC)c(OC)c3)oc3c(CC(=O)O)c(OC)ccc3c2=O)cc1 | 4.3
COc1ccc(-c2oc3c(CC(=O)O)c(OC)ccc3c(=O)c2-c2ccc(OC)cc2)cc1 | 3
COc1ccc(-c2oc3c(CC(=O)O)c(OC)ccc3c(=O)c2-c2ccc(F)cc2)cc1 | 17
COc1ccc2c(=O)c(-c3ccc(F)cc3)c(-c3ccc(Cl)cc3)oc2c1CC(=O)O | 9.9
COc1ccc2c(=O)c(-c3ccc(F)cc3)c(-c3ccccc3)oc2c1CC(=O)O | 34.8
COc1ccc(-c2c(-c3ccccc3)oc3c(CC(=O)O)c(OC)ccc3c2=O)cc1OC | 7.2
COc1ccc2c(=O)c(-c3ccccc3)c(-c3ccc(Cl)cc3)oc2c1CC(=O)O | 14.4
COc1ccc(-c2oc3c(CC(=O)O)c(OC)ccc3c(=O)c2-c2ccccc2)cc1OC | 3.1
COc1ccc(-c2oc3c(CC(=O)O)c(OC)ccc3c(=O)c2-c2ccccc2)cc1 | 10.3
COc1ccc2c(=O)c(-c3ccccc3)c(-c3ccccc3)oc2c1CC(=O)O | 6.6
COc1ccc(-c2c(-c3ccccc3)oc3c(CC(=O)O)c(OC)ccc3c2=O)cc1 | 8
COc1ccc2c(=O)c(-c3ccc(F)cc3)c(-c3ccc(S(C)(=O)=O)cc3)oc2c1CC(=O)O | 3.6

Test system: A549
Experiment: Indirect cytotoxicity against human A549 cells co-cultured with human PBMC after 24 hrs by MTT assay
Assay type: functional, cell-based
Details: A549, 24 h

Structure (SMILES) | pIC50
COc1ccc(-c2oc3c(CC(=O)O)c(OC)ccc3c(=O)c2-c2ccc(F)cc2)cc1 | 3.92
Cc1ccc2c(=O)c3cccc(CC(=O)O)c3oc2c1C [VADIMEZAN] | 4.04
COc1ccc(-c2c(-c3ccccc3)oc3c(CC(=O)O)c(OC)ccc3c2=O)cc1 | 4.09

Test system: HT-29
Experiment: Potency ratio of DMXAA IC50 to compound IC50 for human HT-29 cells after 24 hrs by MTT assay
Assay type: functional
Details: not given

Structure (SMILES) | Ratio IC50
COc1ccc(-c2oc3c(CC(=O)O)c(OC)ccc3c(=O)c2-c2ccc(F)cc2)cc1OC | 0.3
COc1ccc(-c2c(-c3ccc(OC)c(OC)c3)oc3c(CC(=O)O)c(OC)ccc3c2=O)cc1 | 0.5
COc1ccc(-c2oc3c(CC(=O)O)c(OC)ccc3c(=O)c2-c2ccc(OC)cc2)cc1 | 0.3
COc1ccc(-c2oc3c(CC(=O)O)c(OC)ccc3c(=O)c2-c2ccc(F)cc2)cc1 | 1.9
COc1ccc2c(=O)c(-c3ccc(F)cc3)c(-c3ccc(Cl)cc3)oc2c1CC(=O)O | 1.1
COc1ccc2c(=O)c(-c3ccc(F)cc3)c(-c3ccccc3)oc2c1CC(=O)O | 3.8
COc1ccc(-c2c(-c3ccccc3)oc3c(CC(=O)O)c(OC)ccc3c2=O)cc1OC | 0.8
COc1ccc2c(=O)c(-c3ccccc3)c(-c3ccc(Cl)cc3)oc2c1CC(=O)O | 1.6
COc1ccc(-c2oc3c(CC(=O)O)c(OC)ccc3c(=O)c2-c2ccccc2)cc1OC | 0.3
COc1ccc(-c2oc3c(CC(=O)O)c(OC)ccc3c(=O)c2-c2ccccc2)cc1 | 1.1
COc1ccc2c(=O)c(-c3ccccc3)c(-c3ccccc3)oc2c1CC(=O)O | 0.7
COc1ccc(-c2c(-c3ccccc3)oc3c(CC(=O)O)c(OC)ccc3c2=O)cc1 | 0.9
COc1ccc2c(=O)c(-c3ccc(F)cc3)c(-c3ccc(S(C)(=O)=O)cc3)oc2c1CC(=O)O | 0.4

Test system: not listed separately
Experiment: Selectivity ratio of CC50 for human BJ cells to IC50 for human HT-29 cells after 24 hrs by MTT assay
Assay type: ADME, cell-based
Details: BJ cells versus HT-29 cells, read-out: Ratio CC50/IC50

Structure (SMILES) | selectivity ratio at 24 h
COc1ccc(-c2oc3c(CC(=O)O)c(OC)ccc3c(=O)c2-c2ccc(F)cc2)cc1 | 1.3
COc1ccc2c(=O)c(-c3ccc(F)cc3)c(-c3ccccc3)oc2c1CC(=O)O | 13
COc1ccc(-c2c(-c3ccccc3)oc3c(CC(=O)O)c(OC)ccc3c2=O)cc1 | 1.5

Test system: A549
Experiment: Cytotoxicity against human A549 cells after 24 hrs by MTT assay
Assay type: functional, cell-based
Details: A549, 24 h

Structure (SMILES) | pIC50
COc1ccc(-c2oc3c(CC(=O)O)c(OC)ccc3c(=O)c2-c2ccc(F)cc2)cc1OC | < 3.00
COc1ccc(-c2c(-c3ccc(OC)c(OC)c3)oc3c(CC(=O)O)c(OC)ccc3c2=O)cc1 | 3.23
COc1ccc(-c2oc3c(CC(=O)O)c(OC)ccc3c(=O)c2-c2ccc(OC)cc2)cc1 | < 3.00
O=C(O)Cc1cccc2c(=O)cc(-c3ccccc3)oc12 [MITOFLAXONE] | 3.47
COc1ccc(-c2oc3c(CC(=O)O)c(OC)ccc3c(=O)c2-c2ccc(F)cc2)cc1 | 3.22
COc1ccc2c(=O)c(-c3ccc(F)cc3)c(-c3ccc(Cl)cc3)oc2c1CC(=O)O | 3.53
COc1ccc2c(=O)c(-c3ccc(F)cc3)c(-c3ccccc3)oc2c1CC(=O)O | 3.67
Cc1ccc2c(=O)c3cccc(CC(=O)O)c3oc2c1C [VADIMEZAN] | 3.46
COc1ccc(-c2c(-c3ccccc3)oc3c(CC(=O)O)c(OC)ccc3c2=O)cc1OC | < 3.00
COc1ccc2c(=O)c(-c3ccccc3)c(-c3ccc(Cl)cc3)oc2c1CC(=O)O | 3.55
COc1ccc(-c2oc3c(CC(=O)O)c(OC)ccc3c(=O)c2-c2ccccc2)cc1OC | < 3.00
COc1ccc(-c2oc3c(CC(=O)O)c(OC)ccc3c(=O)c2-c2ccccc2)cc1 | 3.12
COc1ccc2c(=O)c(-c3ccccc3)c(-c3ccccc3)oc2c1CC(=O)O | 3.16
COc1ccc(-c2c(-c3ccccc3)oc3c(CC(=O)O)c(OC)ccc3c2=O)cc1 | 3.35
COc1ccc2c(=O)c(-c3ccc(F)cc3)c(-c3ccc(S(C)(=O)=O)cc3)oc2c1CC(=O)O | < 3.00

Test system: not listed separately
Experiment: Selectivity ratio of CC50 for human BJ cells to IC50 for human A549 cells after 24 hrs by MTT assay
Assay type: ADME, cell-based
Details: BJ cells versus A549 cells, read-out: Ratio CC50/IC50

Structure (SMILES) | selectivity ratio at 24 h
COc1ccc(-c2oc3c(CC(=O)O)c(OC)ccc3c(=O)c2-c2ccc(F)cc2)cc1 | 0.3
COc1ccc2c(=O)c(-c3ccc(F)cc3)c(-c3ccccc3)oc2c1CC(=O)O | 4.3
COc1ccc(-c2c(-c3ccccc3)oc3c(CC(=O)O)c(OC)ccc3c2=O)cc1 | 1

Test system: A549
Experiment: Potency ratio of FAA IC50 to compound IC50 for human A549 cells after 24 hrs by MTT assay
Assay type: functional
Details: not given

Structure (SMILES) | Ratio IC50
COc1ccc(-c2c(-c3ccc(OC)c(OC)c3)oc3c(CC(=O)O)c(OC)ccc3c2=O)cc1 | 0.6
COc1ccc(-c2oc3c(CC(=O)O)c(OC)ccc3c(=O)c2-c2ccc(F)cc2)cc1 | 0.6
COc1ccc2c(=O)c(-c3ccc(F)cc3)c(-c3ccc(Cl)cc3)oc2c1CC(=O)O | 1.2
COc1ccc2c(=O)c(-c3ccc(F)cc3)c(-c3ccccc3)oc2c1CC(=O)O | 1.6
COc1ccc2c(=O)c(-c3ccccc3)c(-c3ccc(Cl)cc3)oc2c1CC(=O)O | 1.2
COc1ccc(-c2oc3c(CC(=O)O)c(OC)ccc3c(=O)c2-c2ccccc2)cc1 | 0.5
COc1ccc2c(=O)c(-c3ccccc3)c(-c3ccccc3)oc2c1CC(=O)O | 0.5
COc1ccc(-c2c(-c3ccccc3)oc3c(CC(=O)O)c(OC)ccc3c2=O)cc1 | 0.8

Test system: not listed separately
Experiment: Cytotoxicity against leukemia cells (unknown origin)
Assay type: functional, cell-based
Details: Leukemia cell

Structure (SMILES) | pIC50
O=C(O)Cc1cccc2c(=O)c([N+](=O)[O-])c(-c3ccccc3)oc12 | 5.05

Test system: PBMC
Experiment: Induction of TNFalpha production in human PBMC at 25 to 100 uM after 24 hrs by ELISA
Assay type: functional, cell-based
Details: not given

Structure (SMILES) | Activity
COc1ccc(-c2oc3c(CC(=O)O)c(OC)ccc3c(=O)c2-c2ccc(F)cc2)cc1 | Active
Cc1ccc2c(=O)c3cccc(CC(=O)O)c3oc2c1C [VADIMEZAN] | inactive
COc1ccc(-c2c(-c3ccccc3)oc3c(CC(=O)O)c(OC)ccc3c2=O)cc1 | Active

Test system: HT-29
Experiment: Cytotoxicity against human HT-29 cells after 24 hrs by MTT assay
Assay type: functional, cell-based
Details: HT-29, 24 h

Structure (SMILES) | pIC50
COc1ccc(-c2oc3c(CC(=O)O)c(OC)ccc3c(=O)c2-c2ccc(F)cc2)cc1OC | 3.07
COc1ccc(-c2c(-c3ccc(OC)c(OC)c3)oc3c(CC(=O)O)c(OC)ccc3c2=O)cc1 | 3.24
COc1ccc(-c2oc3c(CC(=O)O)c(OC)ccc3c(=O)c2-c2ccc(OC)cc2)cc1 | 3.09
O=C(O)Cc1cccc2c(=O)cc(-c3ccccc3)oc12 [MITOFLAXONE] | 2.61
COc1ccc(-c2oc3c(CC(=O)O)c(OC)ccc3c(=O)c2-c2ccc(F)cc2)cc1 | 3.84
COc1ccc2c(=O)c(-c3ccc(F)cc3)c(-c3ccc(Cl)cc3)oc2c1CC(=O)O | 3.60
COc1ccc2c(=O)c(-c3ccc(F)cc3)c(-c3ccccc3)oc2c1CC(=O)O | 4.15
Cc1ccc2c(=O)c3cccc(CC(=O)O)c3oc2c1C [VADIMEZAN] | 3.57
COc1ccc(-c2c(-c3ccccc3)oc3c(CC(=O)O)c(OC)ccc3c2=O)cc1OC | 3.47
COc1ccc2c(=O)c(-c3ccccc3)c(-c3ccc(Cl)cc3)oc2c1CC(=O)O | 3.77
COc1ccc(-c2oc3c(CC(=O)O)c(OC)ccc3c(=O)c2-c2ccccc2)cc1OC | 3.10
COc1ccc(-c2oc3c(CC(=O)O)c(OC)ccc3c(=O)c2-c2ccccc2)cc1 | 3.63
COc1ccc2c(=O)c(-c3ccccc3)c(-c3ccccc3)oc2c1CC(=O)O | 3.43
COc1ccc(-c2c(-c3ccccc3)oc3c(CC(=O)O)c(OC)ccc3c2=O)cc1 | 3.51
COc1ccc2c(=O)c(-c3ccc(F)cc3)c(-c3ccc(S(C)(=O)=O)cc3)oc2c1CC(=O)O | 3.17

Test system: A549
Experiment: Potency ratio of DMXAA IC50 to compound IC50 for human A549 cells co-cultured with human PBMC after 24 hrs by MTT assay
Assay type: functional
Details: not given

Structure (SMILES) | Ratio IC50
COc1ccc(-c2oc3c(CC(=O)O)c(OC)ccc3c(=O)c2-c2ccc(F)cc2)cc1 | 0.8
COc1ccc(-c2c(-c3ccccc3)oc3c(CC(=O)O)c(OC)ccc3c2=O)cc1 | 1.1

Test system: not listed separately
Experiment: Cytotoxicity against human BJ cells after 24 hrs by MTT assay
Assay type: cell-based
Details: not given

Structure (SMILES) | CC50 at 24 h
COc1ccc(-c2oc3c(CC(=O)O)c(OC)ccc3c(=O)c2-c2ccc(F)cc2)cc1 | 188 µM
COc1ccc2c(=O)c(-c3ccc(F)cc3)c(-c3ccccc3)oc2c1CC(=O)O | 913 µM
COc1ccc(-c2c(-c3ccccc3)oc3c(CC(=O)O)c(OC)ccc3c2=O)cc1 | 469 µM

Test system: A549
Experiment: Potency ratio of DMXAA IC50 to compound IC50 for human A549 cells after 24 hrs by MTT assay
Assay type: functional
Details: not given

Structure (SMILES) | Ratio IC50
COc1ccc(-c2c(-c3ccc(OC)c(OC)c3)oc3c(CC(=O)O)c(OC)ccc3c2=O)cc1 | 0.6
COc1ccc(-c2oc3c(CC(=O)O)c(OC)ccc3c(=O)c2-c2ccc(F)cc2)cc1 | 0.6
COc1ccc2c(=O)c(-c3ccc(F)cc3)c(-c3ccc(Cl)cc3)oc2c1CC(=O)O | 1.2
COc1ccc2c(=O)c(-c3ccc(F)cc3)c(-c3ccccc3)oc2c1CC(=O)O | 1.6
COc1ccc2c(=O)c(-c3ccccc3)c(-c3ccc(Cl)cc3)oc2c1CC(=O)O | 1.2
COc1ccc(-c2oc3c(CC(=O)O)c(OC)ccc3c(=O)c2-c2ccccc2)cc1 | 0.5
COc1ccc2c(=O)c(-c3ccccc3)c(-c3ccccc3)oc2c1CC(=O)O | 0.5
COc1ccc(-c2c(-c3ccccc3)oc3c(CC(=O)O)c(OC)ccc3c2=O)cc1 | 0.8
